# Source: patent US10233180B2, “Substituted nitrogen-containing heterocyclic derivatives, pharmaceutical compositions comprising the same and applications of antitumor thereof” (ZHEJIANG UNIVERSITY, priority 2014, dated 2019)
# Read-outs that look alike come from different tables or passages of the source.
# Assays:
# Akt1 = molecular target: T1, Akt1 (Homo sapiens, UniProt P31749); experiment: AKT1/PKBα KinEASE FP Fluorescein Green Assay (fluorescence polarization kinase kit); format: biochemical; conditions: 1 h reaction, read-out: Inhibitory activities against Akt1 (IC50)
# T1 construct: purchased 32-021
# Protocol: Second, method for determining the inhibitory activities of substituted nitrogen-containing heterocyclic derivatives in the present invention against Akt1 enzyme:
# The inhibitory activities of compounds against AKT1/PKBα are determined by using AKT1/PKBα KinEASE™ FP Fluorescein Green Assay (Green fluorescence detection system of Kinase).
# Principle adopted by the fluorescence polarization detection of protein kinase B is a competitive reaction: the phosphorylated tracers labeled with fluorescence will compete with unlabeled phosphorylated products produced by reacting with protein kinase B to combine anti-serine antibodies. […] However, in the reaction mixture containing phosphorylated products, fewer tracers will combine with antibodies (fluorescent tracers are replaced from the antibodies), and signals sent our occur depolarizing. Therefore, the change of polarization is directly related to the activity of protein kinase B in the reaction.
# Each of 0.25 μl of compounds with a concentration of 50 μM and the positive control are added to a 384-well plate at room temperature, and each sample is provided with three parallel wells, and then 10 μl of STK Substrate 3 Working Solution, 5 μl of AKT1/PKBα Working Solution, 10 μl of ATP Working Solution are added to each sample respectively, the mixtures are slightly vibrated and shaked for a few minutes. Reaction is carried out just after the adding 10 μl of ATP Working Solution, from this time, reacting for 1 h. After 1 h, 5 μl of STK Stop Mix and 5 μl of STK Antibody Mix are added to each sample respectively to stop the reaction. The samples are maintained for 4 h at room temperature after adding is completed, the polarization values of samples are determined by fluorescence polarization of Microplate Reader (Detection of the signals is valid within 24 h), the inhibitory rate of compounds against the enzyme is calculated by polarization value, and thereby IC50 is calculated.
# Experiment is set up four control groups at the same time, which are Buffer Control Wells, Tracer Control Wells, No Enzyme Wells and blank control of dimethyl sulfoxide, respectively. Thus obtained data are used to calculate the inhibitory rate (the preparation methods of above various solution required for determining the activities of compounds against enzyme refer to the specification of the kit of AKT1/PKBα KinEASE™ FP Fluorescein Green Assay Catalog #32-021).
# [1] = test system: Human ovarian cancer cell strain OVCAR-8; experiment: MTT assay, inhibition of tumor cell growth in vitro, 72 h; format: cell-based; conditions: OVCAR-8, MTT, read-out: Antitumor proliferative activities of tumor cell (IC50, μM) OVCAR-8
# Protocol: (§1) First, inhibitory activity on tumor proliferation in vitro is determined and the structure activity relationship is preliminarily studied, in which different solid tumor cell strains are selected for determining the antitumor activities in vitro of the synthesized compounds.
# (§2) Cell strains: Human ovarian cancer cell strain (OVCAR8), colon adenocarcinoma cell strain (HCT-116)
# Medium: OVCAR8: RPMI 1640+Fetal Bovine Serum
# (§3) Preparing method of medicines: Dissolving the medicine in DMSO to make a 50 mM stock solution, and diluting it according to a certain ratio to obtain 5 different concentrations.
# (§4) Two selected tumor cells OVCAR8 and HCT-116 are incubated at 37° C. in a 5% CO2 incubator, which are subcultured when cells grow up to a density of 70˜90% (adherent cells are subcultured after digesting by Duck's EDTA) for later experiments.
# (§5) Compounds are dissolved and diluted by dimethyl sulfoxide (DMSO), and tumor cells OVCAR8 and HCT-116 are seeded in a 96-well plate at a density of 4000 cells/200 μl/well, 1 μl of the compounds are added to each well with the final concentration of 50 μM, 10 μM, 2 μM, 0.4 μM and 0.08 μM, which is incubated for 72 h at 37° C. in a 5% CO2 incubator with DMSO (1%) as blank control.
# (§6) The calculating formula of cell inhibitory rate is: cell inhibitory rate %=(the OD value of the control group−the OD value of the medication group)/the OD value of the control group×100%, the half maximal inhibitory concentration (IC50) is obtained by Bliss method.
# [2] = test system: human colon cancer cell strain HCT-116; experiment: as above; format: cell-based; conditions: HCT-116, MTT, read-out: Antitumor proliferative activities of tumor cell (IC50, μM) HCT-116 (converted)
# Protocol: as §1, §2
# HCT-116: RPMI 1640+Fetal Bovine Serum
# as §3, §4, §5, §6
# T1 sequence (P31749 whole entry): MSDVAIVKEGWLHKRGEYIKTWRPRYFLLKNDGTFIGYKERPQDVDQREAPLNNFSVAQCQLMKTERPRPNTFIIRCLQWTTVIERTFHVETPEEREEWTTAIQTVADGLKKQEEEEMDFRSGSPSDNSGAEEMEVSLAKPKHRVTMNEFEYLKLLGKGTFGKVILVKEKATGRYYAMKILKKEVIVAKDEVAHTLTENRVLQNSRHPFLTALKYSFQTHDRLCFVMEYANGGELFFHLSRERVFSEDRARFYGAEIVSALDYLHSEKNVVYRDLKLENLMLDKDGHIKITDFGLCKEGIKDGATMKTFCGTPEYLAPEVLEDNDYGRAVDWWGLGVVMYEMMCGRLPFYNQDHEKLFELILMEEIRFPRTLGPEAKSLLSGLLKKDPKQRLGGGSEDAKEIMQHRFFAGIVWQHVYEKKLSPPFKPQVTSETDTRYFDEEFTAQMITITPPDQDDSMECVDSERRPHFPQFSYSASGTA
SMILES,IC50 (Akt1) [nM],IC50 ([1]; Homo sapiens) [µM],IC50 ([2]; Homo sapiens) [µM],IC50 [1] [µM],IC50 [2] [µM]
"Cn1ncc(Cl)c1-c1coc(C(=O)N[C@H]2CNCC[C@@H]2c2ccc(C(F)(F)F)cc2)c1 (racemic) [Compound 24, 4-(4-chloro-1-methyl-1H-pyrazol-5-yl)-N-(3,4-trans-4-(4-trifluoromethylphenyl)piperidin-3-yl)furan-2-formamide]",18,0.98,2.9,–,–
"CC(C)c1cnn(C)c1-c1nc(C(=O)N[C@H]2CNCC[C@@H]2C2CCC(F)C2)ncc1Cl (stereo partly drawn) [Compound 51, 5-chloro-4-(4-isopropyl-1-methyl-1H-pyrazol-5-yl)-N-(3,4-trans-4-(3-fluorocyclopentane)piperidin-3-yl)pyrimidine-2-formamide]",85,0.68,3.11,–,–
"Cc1cnn(C)c1-c1cnc(C(=O)N[C@H]2CNCC[C@@H]2c2ccc(F)c(F)c2)cc1F (racemic) [Compound 46, 4-fluoro-5-(1,4-dimethyl-1H-pyrazol-5-yl)-N-(3,4-trans-4-(3,4-difluorophenyl)piperidin-3-yl)pyridinyl-2-formamide]",348,7.94,23.8,–,–
"Cn1ncc(Cl)c1-c1cc(C(=O)N[C@@H]2CNCC[C@H]2c2ccc(Cl)c(Cl)c2)oc1Cl [Compound 40, 5-chloro-4-(4-chloro-1-methyl-1H-pyrazol-5-yl)-N-((3S,4S)-4-(3,4-dichlorophenyl)piperidin-3-yl)furan-2-formamide]",118,1.69,1.56,–,–
"Cc1nc(C(=O)N[C@H]2CNCC[C@@H]2c2ccncc2)ccc1-c1c(Br)cnn1C (racemic) [Compound 58, 6-methyl-5-(4-bromo-1-methyl-1H-pyrazol-5-yl)-N-(3,4-trans-4-(pyridinyl-4-yl)piperidin-3-yl)pyridinyl-2-formamide]",52,3.68,15.8,–,–
"CC(Cl)c1ccc([C@H]2CCNC[C@@H]2NC(=O)c2cc(Cl)c(-c3ncnn3C)s2)cc1 (stereo partly drawn) [Compound 8, 4-chloro-5-(1-methyl-1H-1,2,4-triazol-5-yl)-N-(3,4-trans-4-(4-(1-chloroethyl)phenyl)piperidin-3-yl)thiophene-2-formamide]",82,9.01,3.26,–,–
"Cc1cnn(C)c1-c1cnc(C(=O)N[C@H]2CNC[C@@H]2c2ccc(C(F)(F)F)cc2)cc1F (racemic) [Compound 71, 4-fluoro-5-(1,4-dimethyl-1H-pyrazol-5-yl)-N-(3,4-trans-4-(4-trifluoromethylphenyl)pyrrolidin-3-yl)pyridinyl-2-formamide]",116,2.61,11.1,–,–
"Cn1ncc(Br)c1-c1ccc(C(=O)N[C@@H]2CNCC[C@H]2c2ccc(Cl)cc2)cc1 [Compound 72, 4-(4-bromo-1-methyl-1H-pyrazol-5-yl)-N-((3S,4S)-4-(4-chlorophenyl)piperidin-3-yl)benzamide]",6,1.34,0.92,–,–
"NC1(C(=O)N[C@@H](CCO)c2ccc(Cl)cc2)CCN(c2nc[nH]c3nccc2-3)CC1 [AZD5363, reference compound]",–,–,–,7.27,5.2

# Results, then the compound that gave them:
IC50 (Akt1) [nM],IC50 ([1]; Homo sapiens) [µM],IC50 ([2]; Homo sapiens) [µM],IC50 [1] [µM],IC50 [2] [µM],SMILES
3,5.79,0.42,–,–,"CNC(=O)CC1C[C@@H](c2ccc(F)c(F)c2)[C@H](NC(=O)c2cc(-c3c(Cl)cnn3C)cs2)CN1 (stereo partly drawn) [Compound 133, 4-(4-chloro-1-methyl-1H-pyrazol-5-yl)-N-((3S,4S)-4-(3,4-difluorophenyl)-6-(2-(methylamido)-2-oxyethyl)piperidin-3-yl)thiophene-2-formamide]"
7,2.45,1.21,–,–,"Cn1ncc(Cl)c1-c1ccc(C(=O)N[C@@H]2CNCC[C@H]2c2cccc(F)c2)cc1 [Compound 73, 4-(4-chloro-1-methyl-1H-pyrazol-5-yl)-N-((3S,4S)-4-(3-fluorophenyl)piperidin-3-yl)benzamide]"
9,2.43,0.36,–,–,"Cn1ncc(Br)c1-c1ccc(C(=O)N[C@@H]2CNCC[C@H]2c2cccc(F)c2)s1 [Compound 147, 5-(4-bromo-1-methyl-1H-pyrazol-5-yl)-N-((3S,4S)-4-(3-fluorophenyl)piperidin-3-yl)thiophene-2-formamide]"
19,3.77,4.08,–,–,"Cn1ncc(Cl)c1-c1ccc(C(=O)N[C@@H]2CNCC[C@H]2c2cccc(F)c2)cc1N [Compound 79, 3-amido-4-(4-chloro-1-methyl-1H-pyrazol-5-yl)-N-((3S,4S)-4-(3-fluorophenyl)piperidin-3-yl)benzamide]"
3,0.14,1.72,–,–,"Cn1ncc(Cl)c1-c1cc(C(=O)N[C@@H]2CNC(CCO)C[C@H]2c2ccc(Cl)c(Cl)c2)oc1Cl (stereo partly drawn) [Compound 113, 5-chloro-4-(4-chloro-1-methyl-1H-pyrazol-5-yl)-N-((3S,4S)-4-(3,4-dichlorophenyl)-6-(2-hydroxyethyl)piperidin-3-yl)furan-2-formamide]"
2,1.02,2.51,–,–,"C=CCC1C[C@@H](c2ccc(Cl)c(Cl)c2)[C@H](NC(=O)c2cc(-c3c(Cl)cnn3C)c(Cl)o2)CN1 (stereo partly drawn) [Compound 106, N-((3S,4S)-6-allyl-4-(3,4-dichlorophenyl)piperidin-3-yl)-5-chloro-4-(4-chloro-1-methyl-1H-pyrazol-5-yl)furan-2-formamide]"
1,0.56,0.34,–,–,"COCCC1C[C@@H](c2ccc(Cl)c(Cl)c2)[C@H](NC(=O)c2cc(-c3c(Cl)cnn3C)c(Cl)o2)CN1 (stereo partly drawn) [Compound 124, 5-chloro-4-(4-chloro-1-methyl-1H-pyrazol-5-yl)-N-((3S,4S)-4-(3,4-dichlorophenyl)-6-(2-methoxyethyl)piperidin-3-yl)furan-2-formamide]"
51,1.94,0.56,–,–,"CNC(=O)CC1C[C@@H](c2ccc(F)c(F)c2)[C@H](NC(=O)c2cc(-c3c(Cl)cnn3C)c(Cl)o2)CN1 (stereo partly drawn) [Compound 105, 5-chloro-4-(4-chloro-1-methyl-1H-pyrazol-5-yl)-N-((3S,4S)-4-(3,4-difluorophenyl)-6-(2-(methylamido)-2-oxoethyl)piperidin-3-yl)furan-2-formamide]"
13,2.19,0.99,–,–,"CCc1cnn(C)c1-c1cc(F)c(C(=O)N[C@@H]2CNCC[C@H]2c2ccc(Cl)c(C(F)(F)F)c2)c(F)c1 [Compound 75, N-((3S,4S)-4-(4-chloro-3-(trifluoromethyl)phenyl)piperidin-3-yl)-4-(4-ethyl-1-methyl-1H-pyrazol-5-yl)-2,6-difluorobenzamide]"
12,1.2,0.8,–,–,"C[C@H]1CNC[C@@H](NC(=O)c2cc(-c3c(Cl)cnn3C)c(Cl)s2)[C@@H]1c1cccc(F)c1 [Compound 135, 5-chloro-4-(4-chloro-1-methyl-1H-pyrazol-5-yl)-N-((3S, 4S, 5R)-4-(3-fluorophenyl)-5-methylpiperidin-3-yl)thiophene-2-formamide]"
9,4.44,2.1,–,–,"Cn1ncc(Cl)c1-c1ccc(C(=O)N[C@@H]2CNCC[C@H]2c2ccc(Cl)c(C(F)(F)F)c2)c(F)c1 [Compound 84, 4-(4-chloro-1-methyl-1H-pyrazol-5-yl)-N-((3S,4S)-4-(4-chloro-3-(trifluoromethyl)phenyl)piperidin-3-yl)-2-fluorobenzamide]"
